The subject of the test is J774.2. In words: Cytotoxicity tested against J774.2 cells. It counts as functional. The settings on record: Mus musculus, read-out: ED50 (the source's name).
With `CC(=O)O[C@@]12CO[C@@H]1C[C@@H](O)[C@@]1(C)C(=O)c3[se]cc4c3[C@@](C(C)(C)O)(C[C@@H]4OC(=O)[C@H](O)[C@@H](NC(=O)c3ccccc3)c3ccccc3)[C@@H](OC(=O)c3ccccc3)[C@H]21`, the EC50 was 900 nM.

For `CC(=O)O[C@H]1C(=O)[C@@]2(C)[C@H]([C@H](OC(=O)c3ccccc3)[C@]3(O)C[C@H](OC(=O)[C@H](O)[C@@H](NC(=O)c4ccccc4)c4ccccc4)C(C)=C1C3(C)C)[C@]1(OC(C)=O)CO[C@@H]1[C@@H]2O`, the EC50 was determined as 250 nM.

On to `CC(=O)O[C@H]1C(=O)[C@@]2(C)[C@H]([C@H](OC(=O)c3ccccc3)[C@]3(O)C[C@H](OC(=O)[C@H](O)[C@@H](NC(=O)c4ccccc4)c4ccccc4)C(C)=C1C3(C)C)[C@]1(OC(C)=O)CO[C@@H]1C[C@@H]2O` [PACLITAXEL], for which the EC50 was 16 nM.

(Values after ChEMBL document CHEMBL1150983, “Synthesis of novel taxol analogs and evaluation of their biological activities” (1997).)
